In patent US9718790B2, “Triazine derivative and pharmaceutical composition having an analgesic activity comprising the same” (SHIONOGI & CO., LTD., priority 2010, dated 2017):
“And” between values parts separate entries of the source, which are not always exact repeats. Identical values can stand only once.

Target: human P2X3 receptor (Homo sapiens (Human), UniProt P56373)
Experiment: Evaluation of human P2X3 receptor inhibitory activity (Fluo-3 calcium fluorescence, FDSS 3000, ATP stimulation);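 also: stimulus was 50 nM ATP with fluorescence followed for 3 min, and the response per well was peak post-ATP fluorescence divided by the reading at measurement start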
Assay type: cell-based
[1] = human P2X3 receptor, Test Example 1
[2] = C6BU-1 cells stably expressing human P2X3 receptor, Fluo-3 fluorescence, FDSS 3000

Sequence of human P2X3 receptor (P56373 whole entry): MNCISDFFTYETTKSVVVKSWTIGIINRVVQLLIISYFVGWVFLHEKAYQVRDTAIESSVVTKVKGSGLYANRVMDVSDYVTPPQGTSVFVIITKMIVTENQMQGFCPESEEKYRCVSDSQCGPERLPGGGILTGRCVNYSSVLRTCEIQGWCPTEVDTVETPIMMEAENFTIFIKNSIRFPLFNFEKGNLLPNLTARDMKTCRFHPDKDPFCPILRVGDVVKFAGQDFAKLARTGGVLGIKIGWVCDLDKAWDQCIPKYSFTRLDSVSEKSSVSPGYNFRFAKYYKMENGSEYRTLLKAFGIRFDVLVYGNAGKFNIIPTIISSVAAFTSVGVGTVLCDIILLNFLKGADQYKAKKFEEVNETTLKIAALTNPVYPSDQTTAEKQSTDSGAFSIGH

SMILES | IC50 [1] [nM] | IC50 [2]
CC[C@@H](Cn1c(=O)[nH]/c(=N\c2ccc(OC(C)C)c(C)c2)n(Cc2ccc(Cl)cc2)c1=O)C(=O)O [Compound I-0889] | 53 | –
CCCOc1ccc(/N=c2\[nH]c(=O)n(C[C@H](CC)C(=O)O)c(=O)n2Cc2ccc(Cl)cc2)cc1 [Compound I-0890] | 32 | –
C=Cc1ccc(Cn2c(=O)n(C[C@H](C)C(=O)OC)c(=O)[nH]/c2=N\c2ccc(OC(C)C)c(C)c2)cc1 [Compound I-0892, (S)-1-(4-vinylbenzyl)-6-(3-mehyl-4-isopropoxyphenylimino)-3-(2-methoxycarbonylpropyl)-1,3,5-triazinane-2,4-dion] | 18 | –
CO/N=C/c1ccc(/N=c2\[nH]c(=O)n(C[C@H](C)C(=O)O)c(=O)n2Cc2ccc(Cl)cc2)cc1F [Compound I-0893, (S)-1-(4-chlorobenzyl)-6-(3-fluoro-4-methoxyiminomethylphenylimino)-3-(2-hydroxycarbonylpropyl)methyl-1,3,5-triazinane-2,4-dion] | 202 | –
CCc1ccc(Cn2c(=O)n(C[C@H](C)C(=O)OC)c(=O)[nH]/c2=N\c2ccc(OC(C)C)c(C)c2)cc1 [Compound I-0894, (S)-1-(4-ethylbenzyl)-6-(3-mehyl-4-isopropoxyphenylimino)-3-(2-methoxycarbonylpropyl)-1,3,5-triazinane-2,4-dion] | 28 | –
C=Cc1ccc(Cn2c(=O)n(C[C@H](C)C(=O)O)c(=O)[nH]/c2=N\c2ccc(OC(C)C)c(C)c2)cc1 [Compound I-0897, (S)-1-(4-vinylbenzyl)-6-(3-mehyl-4-isopropoxyphenylimino)-3-(2-hydroxycarbonylpropyl)-1,3,5-triazinane-2,4-dion] | – | 25 nM
CCc1ccc(Cn2c(=O)n(C[C@H](C)C(=O)O)c(=O)[nH]/c2=N\c2ccc(OC(C)C)c(C)c2)cc1 [Compound I-0898, (S)-1-(4-ethylbenzyl)-6-(3-mehyl-4-isopropoxyphenylimino)-3-(2-hydroxycarbonylpropyl)-1,3,5-triazinane-2,4-dion] | – | 20 nM
Cc1cc(/N=c2\[nH]c(=O)n(CC3(CO)COC3)c(=O)n2Cc2ccc(Cl)cc2)ccc1OC(C)C [Compound I-0906] | – | 8 nM
C=Cc1cc(/N=c2\[nH]c(=O)n(C[C@H](C)C(=O)OC)c(=O)n2Cc2ccc(C)cc2)ccc1OC(C)C [Compound I-0907, (S)-1-(4-methylbenzyl)-6-(3-vinyl-4-isopropoxyphenylimino)-3-(2-methoxycarbonylpropyl)-1,3,5-triazinane-2,4-dion] | – | 7 nM
CCc1cc(/N=c2\[nH]c(=O)n(C[C@H](C)C(=O)OC)c(=O)n2Cc2ccc(C)cc2)ccc1OC(C)C [Compound I-0908, (S)-1-(4-methylbenzyl)-6-(3-ethyl-4-isopropoxyphenylimino)-3-(2-methoxycarbonylpropyl)-1,3,5-triazinane-2,4-dion] | – | 13 nM
Cc1ccc(Cn2c(=O)n(C[C@H](C)C(=O)O)c(=O)[nH]/c2=N\c2ccc(OC(C)C)c(Br)c2)cc1 [Compound I-0909] | – | 7 nM
C=Cc1cc(/N=c2\[nH]c(=O)n(C[C@H](C)C(=O)O)c(=O)n2Cc2ccc(C)cc2)ccc1OC(C)C [Compound I-0910, (S)-1-(4-methylbenzyl)-6-(3-vinyl-4-isopropoxyphenylimino)-3-(2-hydroxycarbonylpropyl)-1,3,5-triazinane-2,4-dion] | – | 8 nM
CCc1cc(/N=c2\[nH]c(=O)n(C[C@H](C)C(=O)O)c(=O)n2Cc2ccc(C)cc2)ccc1OC(C)C [Compound I-0911, (S)-1-(4-methylbenzyl)-6-(3-ethyl-4-isopropoxyphenylimino)-3-(2-hydroxycarbonylpropyl)-1,3,5-triazinane-2,4-dion] | – | 15 nM
CCCOc1ccc(/N=c2\[nH]c(=O)n(CC3(C(=O)OCC)CC3)c(=O)n2Cc2ccc(C)cc2)cc1 [Compound I-0912] | – | 10 nM
CCOC(=O)C1(Cn2c(=O)[nH]/c(=N\c3ccc(OCC4CC4)cc3)n(Cc3ccc(C)cc3)c2=O)CC1 [Compound I-0913] | – | 9 nM
Cc1ccc(Cn2c(=O)n(CC3(C(=O)O)CC3)c(=O)[nH]/c2=N\c2ccc(OCC3CC3)cc2)cc1 [Compound I-0915] | – | 75 nM
CCOc1ccc(/N=c2\[nH]c(=O)n([C@@H](C)[C@@H](C)C(=O)OC)c(=O)n2Cc2ccc(Cl)cc2)cc1Cl [Compound I-0916] | – | 19 nM
COC(=O)[C@H](C)[C@H](C)n1c(=O)[nH]/c(=N\c2ccc(OC(C)C)c(Cl)c2)n(Cc2ccc(Cl)cc2)c1=O [Compound I-0917] | – | 19 nM
CCOC(=O)C1(Cn2c(=O)[nH]/c(=N\c3ccc(OCC)c(Cl)c3)n(Cc3ccc(Cl)cc3)c2=O)CC1 [Compound I-0918] | – | 14 nM
CCCOc1ccc(/N=c2\[nH]c(=O)n(CC3(C(=O)OCC)CC3)c(=O)n2Cc2ccc(Cl)cc2)cc1 [Compound I-0919] | – | 14 nM
CCCOc1ccc(/N=c2\[nH]c(=O)n([C@@H](C)[C@@H](C)C(=O)O)c(=O)n2Cc2ccc(Cl)cc2)cc1 [Compound I-0920] | – | 37 nM
C[C@@H](C(=O)O)[C@H](C)n1c(=O)[nH]/c(=N\c2ccc(OCC3CC3)cc2)n(Cc2ccc(Cl)cc2)c1=O [Compound I-0921] | – | 30 nM
CCOc1ccc(/N=c2\[nH]c(=O)n([C@@H](C)[C@@H](C)C(=O)O)c(=O)n2Cc2ccc(Cl)cc2)cc1Cl [Compound I-0922] | – | 29 nM
CC(C)Oc1ccc(/N=c2\[nH]c(=O)n([C@@H](C)[C@@H](C)C(=O)O)c(=O)n2Cc2ccc(Cl)cc2)cc1Cl [Compound I-0923] | – | 15 nM
CCOc1ccc(/N=c2\[nH]c(=O)n(CC3(C(=O)O)CC3)c(=O)n2Cc2ccc(Cl)cc2)cc1Cl [Compound I-0924] | – | 30 nM
CCCOc1ccc(/N=c2\[nH]c(=O)n(CC3(C(=O)O)CC3)c(=O)n2Cc2ccc(Cl)cc2)cc1 [Compound I-0925] | – | 59 nM
CCCOc1ccc(/N=c2\[nH]c(=O)n([C@@H](C)[C@@H](C)C(=O)OC)c(=O)n2Cc2ccc(C)cc2)cc1 [Compound I-0926] | – | 31 nM

SMILES | IC50 [1] [nM] | IC50 [2]
COC(=O)[C@H](C)[C@H](C)n1c(=O)[nH]/c(=N\c2ccc(OC(C)C)c(C)c2)n(Cc2ccc(C)cc2)c1=O [Compound I-0927] | – | 21 nM
COC(=O)[C@H](C)[C@H](C)n1c(=O)[nH]/c(=N\c2ccc(OC(C)C)c(Cl)c2)n(Cc2ccc(C)cc2)c1=O [Compound I-0928] | – | 14 nM
CCCOc1ccc(/N=c2\[nH]c(=O)n([C@@H](C)[C@@H](C)C(=O)O)c(=O)n2Cc2ccc(C)cc2)cc1 [Compound I-0929] | – | 45 nM
Cc1ccc(Cn2c(=O)n([C@@H](C)[C@@H](C)C(=O)O)c(=O)[nH]/c2=N\c2ccc(OC(C)C)c(C)c2)cc1 [Compound I-0930] | – | 30 nM
C[C@@H](Cn1c(=O)[nH]/c(=N\c2ccc(O[C@H](C)C(F)(F)F)cc2)n(Cc2ccc(Cl)cc2)c1=O)C(=O)O [Compound I-0932] | – | 21 nM
C[C@H](Oc1ccc(/N=c2\[nH]c(=O)n(C[C@H](C)C(=O)O)c(=O)n2Cc2ccc(Cl)cc2)cc1)C(F)(F)F [Compound I-0933] | – | 82 nM
O=C(O)C1(Cn2c(=O)[nH]/c(=N\c3ccc(OCC4CC4)cc3)n(Cc3ccc(Cl)cc3)c2=O)CC1 [Compound I-0934] | – | 57 nM
Cc1ccc(Cn2c(=O)n(CC3(C(=O)O)CC3)c(=O)[nH]/c2=N\c2ccc(OC(C)C)c(C)c2)cc1 [Compound I-0935] | – | 38 nM
CC[C@@H](C)Oc1ccc(/N=c2\[nH]c(=O)n([C@H](C)CC(=O)O)c(=O)n2Cc2ccc(C)cc2)cc1 [Compound I-0936] | – | 65 nM
CC[C@@H](C)Oc1ccc(/N=c2\[nH]c(=O)n([C@H](C)CC(=O)O)c(=O)n2Cc2ccc(C)cc2)cc1C [Compound I-0937] | – | 22 nM
CC[C@@H](C)Oc1ccc(/N=c2\[nH]c(=O)n([C@H](C)CC(=O)OC)c(=O)n2Cc2ccc(C)cc2)cc1C [Compound I-0938] | – | 35 nM
CC[C@@H](C)Oc1ccc(/N=c2\[nH]c(=O)n([C@H](C)CC(=O)OC)c(=O)n2Cc2ccc(C)cc2)cc1 [Compound I-0939] | – | 34 nM
CCOC(=O)C1(Cn2c(=O)[nH]/c(=N\c3ccc(OC(C)C)c(C)c3)n(Cc3ccc(C)cc3)c2=O)CC1 [Compound I-0941] | – | 5 nM
COC(=O)[C@@H](C)Cn1c(=O)[nH]/c(=N\c2ccc(O[C@H](C)C(F)(F)F)cc2)n(Cc2ccc(Cl)cc2)c1=O [Compound I-0942] | – | 22 nM
COC(=O)[C@@H](C)Cn1c(=O)[nH]/c(=N\c2ccc(O[C@@H](C)C(F)(F)F)cc2)n(Cc2ccc(Cl)cc2)c1=O [Compound I-0943] | – | 61 nM
C#Cc1ccc(Cn2c(=O)n(C[C@H](C)C(=O)OC)c(=O)[nH]/c2=N\c2ccc(OC(C)C)c(C)c2)cc1 [Compound I-0945] | – | 173 nM
C#Cc1ccc(Cn2c(=O)n(C[C@H](C)C(=O)O)c(=O)[nH]/c2=N\c2ccc(OC(C)C)c(C)c2)cc1 [Compound I-0946] | – | 239 nM
COC(=O)[C@@H](C)Cn1c(=O)[nH]/c(=N\c2ccc(CC(C)C)c(C)c2)n(Cc2ccc(Cl)cc2)c1=O [Compound I-0947] | – | 24 nM
COC(=O)[C@@H](C)Cn1c(=O)[nH]/c(=N\c2ccc(C=C(C)C)c(C)c2)n(Cc2ccc(Cl)cc2)c1=O [Compound I-0948] | – | 19 nM
Cc1cc(/N=c2\[nH]c(=O)n(C[C@H](C)C(=O)O)c(=O)n2Cc2ccc(Cl)cc2)ccc1CC(C)C [Compound I-0949] | – | 8 nM and 21 nM
CC(C)=Cc1ccc(/N=c2\[nH]c(=O)n(C[C@H](C)C(=O)O)c(=O)n2Cc2ccc(Cl)cc2)cc1C [Compound I-0950] | – | 20 nM
COC(=O)[C@@H](C)Cn1c(=O)[nH]/c(=N\c2ccc(OC(C)C)c(C#N)c2)n(Cc2ccc(C)cc2)c1=O [Compound I-0951] | – | 33 nM
CCN(c1ccc(/N=c2\[nH]c(=O)n(C[C@H](C)C(=O)OC)c(=O)n2Cc2ccc(Cl)cc2)cc1)C(C)C [Compound I-0952] | – | 741 nM
COC(=O)[C@@H](C)Cn1c(=O)[nH]/c(=N\c2ccc(OC(C)C)c(C#N)c2)n(Cc2ccc(Cl)cc2)c1=O [Compound I-0953] | – | 42 nM
COC(=O)[C@@H](C)Cn1c(=O)[nH]/c(=N\c2ccc(N3CCCCC3)cc2)n(Cc2ccc(Cl)cc2)c1=O [Compound I-0954] | – | 23 nM
COC(=O)[C@@H](C)Cn1c(=O)[nH]/c(=N\c2ccc(C=C(C)C)c(Cl)c2)n(Cc2ccc(Cl)cc2)c1=O [Compound I-0955] | – | 28 nM
